Data from ChEMBL document CHEMBL1201862, “PubChem BioAssay data set” (2004).
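Assay format: 96-well plates, 48-hour exposure. The concentration for 50% growth inhibition is given as GI50.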 Active and inactive are the calls of the source. Rule as the data show it: active = GI50 up to about 1.1 µM and inactive = higher.

Columns and labels:
Assay in all cases: growth of human tumour cells (NCI), 48 h
HOP-18 = tested on: HOP-18
HOP-62 = tested on: HOP-62
SF-295 = tested on: SF-295
KM12 = tested on: KM12
DLD-1 = tested on: DLD-1
Malme-3M = tested on: Malme-3M
HCT-116 = tested on: HCT-116
SK-MEL-28 = tested on: SK-MEL-28
OVCAR-4 = tested on: OVCAR-4
RPMI-8226 = tested on: RPMI-8226
SK-MEL-5 = tested on: SK-MEL-5
HT-29 = tested on: HT-29
SF-539 = tested on: SF-539
SW-620 = tested on: SW-620
DMS-273 = tested on: DMS-273
XF498 = tested on: XF498
DMS-114 = tested on: DMS-114
SK-OV-3 = tested on: SK-OV-3
ACHN = tested on: ACHN
TK-10 = tested on: TK-10

Measured: GI50

CCOC(=O)NC(=O)c1cn(CCN(CCO)C(=O)NCCCCCCNC(=O)N(CCO)CCn2cc(C(=O)NC(=O)OCC)c(=O)[nH]c2=O)c(=O)[nH]c1=O
inactive: HOP-18 > 100 µM | HOP-62 > 100 µM | SF-295 > 100 µM | KM12 > 100 µM | DLD-1 > 100 µM | Malme-3M > 100 µM | HCT-116 > 100 µM | SK-MEL-28 > 100 µM | OVCAR-4 > 100 µM | RPMI-8226 > 100 µM | SK-MEL-5 > 100 µM | HT-29 > 61 µM | SF-539 > 100 µM | SW-620 > 100 µM | DMS-273 > 100 µM | XF498 > 100 µM | DMS-114 > 100 µM

CCCCCCCCCOCC(COP(=O)([O-])OCC[N+](C)(C)C)OC (centres undefined)
inactive: HOP-18 > 100 µM | HOP-62 > 100 µM | SF-295 > 100 µM | KM12 > 100 µM | DLD-1 > 100 µM | Malme-3M > 100 µM | HCT-116 > 100 µM | SK-MEL-28 > 100 µM | OVCAR-4 > 100 µM | RPMI-8226 > 100 µM | SK-MEL-5 > 100 µM | SK-OV-3 > 100 µM | HT-29 > 100 µM | SF-539 > 100 µM | SW-620 > 100 µM | DMS-273 > 100 µM | XF498 > 100 µM | DMS-114 > 100 µM

O=[PH](O)c1cccs1
inactive: HOP-18 > 100 µM | SF-295 > 100 µM | DLD-1 > 100 µM | HCT-116 > 100 µM | SK-MEL-28 > 100 µM | RPMI-8226 > 100 µM | SK-MEL-5 > 100 µM | SK-OV-3 > 100 µM | HT-29 > 100 µM | SF-539 > 100 µM | SW-620 > 100 µM | DMS-273 > 100 µM | ACHN > 100 µM | TK-10 > 100 µM | XF498 > 100 µM | DMS-114 > 100 µM

O=C1CNC(=O)N1 [HYDANTOIN]
inactive: HOP-18 > 1120 µM | HOP-62 > 1120 µM | SF-295 > 1120 µM | KM12 > 1120 µM | DLD-1 > 1120 µM | Malme-3M > 1120 µM | HCT-116 > 1120 µM | SK-MEL-28 > 1120 µM | OVCAR-4 > 1120 µM | RPMI-8226 > 1120 µM | SK-MEL-5 > 1120 µM | SK-OV-3 > 1120 µM | HT-29 > 1120 µM | SF-539 > 1120 µM | SW-620 > 1120 µM | DMS-273 > 1120 µM | XF498 > 11.2 µM | DMS-114 > 1120 µM
